In this test the target is Glucagon-like peptide 1 receptor (Homo sapiens, UniProt P43220). Nature of the test: GLP-1R agonist cAMP stimulation Assay. The source says:
cAMP Detection Kit, Cisbio (Cat #62AM4PEJ).

Sequence of Glucagon-like peptide 1 receptor (P43220 whole entry): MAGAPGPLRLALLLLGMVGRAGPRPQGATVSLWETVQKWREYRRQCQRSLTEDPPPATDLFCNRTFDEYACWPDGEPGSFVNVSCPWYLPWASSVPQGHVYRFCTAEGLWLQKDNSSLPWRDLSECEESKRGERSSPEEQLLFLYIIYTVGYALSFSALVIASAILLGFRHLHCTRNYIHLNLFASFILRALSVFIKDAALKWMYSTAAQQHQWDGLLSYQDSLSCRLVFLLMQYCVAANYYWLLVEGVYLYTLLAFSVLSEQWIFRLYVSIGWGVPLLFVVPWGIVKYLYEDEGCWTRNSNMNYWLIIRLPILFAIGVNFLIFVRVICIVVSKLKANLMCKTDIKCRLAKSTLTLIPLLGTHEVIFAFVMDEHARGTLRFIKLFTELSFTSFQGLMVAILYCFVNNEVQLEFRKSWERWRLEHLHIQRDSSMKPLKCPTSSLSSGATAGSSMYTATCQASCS

Consider `Cc1coc2c(COc3cccc(C4=CCN(Cc5nc6cc(C(=O)Nc7cc(F)c8c(c7)C7(CC7)C(=O)N8)ccc6n5C[C@@H]5CCO5)CC4)n3)ccc(C#N)c12` [US20230271949, Example 351], for which the EC50 (as a rule, the concentration at which the effect is half-maximal) is 190 pM.
